In patent publication US12385042B2, “Cell-penetrating peptides” (VECTIOPEP OÜ, priority 2019, dated 2025):
Entries after “also recorded” stand apart in the source; their conditions may differ. Where a SMILES comes first, the peptide text is derived from it. Bridges are numbered along the chain shown (N, C = ends). Roman numbers before positions name the chains, in order. [ ]: non-standard residue; d: D form. The star is where a group is joined. Arachidoyl = CCCCCCCCCCCCCCCCCCCC(=O)*; Stearoyl = CCCCCCCCCCCCCCCCCC(=O)*; Orn = NCCC[C@H](N)C(=O)O

Tests used:
[1] = Negative staining TEM of CPP/siRNA nanoparticles; type: physicochemical; conditions: CPP/siRNA complexes at MR30
Description: For the morphological analysis the CPP/siRNA complexes were assembled as described above at MR30. For negative staining, copper grids were covered with Formvar film and carbon layer using Leica EM ACE600 carbon coater (Leica Microsystems, Germany). Then, 10 μL of each sample was absorbed to the grids for 2 min and excess of solution was gently removed. Samples were then exposed to 2% aqueous uranyl acetate solution for 1 min. After removing excess stain with filter paper, the samples were allowed to air-dry. The samples were examined at 120 kV accelerating voltage on FEI Tecnai G2 Spirit electron microscope (FEI, The Netherlands).

[2] = test system: U87 MG-luc2 human glioma cells, stably expressing luc2; test: Luciferase gene downregulation by CPP/siRNA (siLuc2) complexes; type: cell-based; conditions: for luciferase downregulation efficiency (in words) / Red (%) (reduction, based on remaining luminescence on U87 cells post-treatment): CPP/siRNA complexes; for luciferase downregulation efficiency (in words): comparison between CPPs; for Red (%) (reduction, based on remaining luminescence on U87 cells post-treatment): siRNA against luciferase
Description: (§1) For assessing the siRNA mediated RNAi, CHO-GFP or U87-luc2 cells (5×10^5 cells per well) were seeded on a 24-well plate a day prior to the experiment and grown in serum containing media. On experiment day, prior to adding pre-formed complexes ( 1/10th of the final volume per well), media was replaced with fresh serum containing medium.
(§2) For complex formation, peptide was mixed with luc2 siRNA (sense 5′-[…]-3′ (SEQ ID NO:7), antisense 5′-[…] 3′ (SEQ ID NO:8), Metabion, Germany) or with siRNA against GFP (5′-[…] (SEQ ID NO:9), 3′-[…] (SEQ ID NO:10)) in mQ water (pH 5.3-6.3) using peptide to siRNA molar ratios (MR is the ratio of peptide to siRNA) […] and incubated at RT for 1 h. For siLuc2, the final concentration in media was 25 nM and for siGFP 100 nM. Cells were co-incubated with complexes for 4 h (37° C., 5% CO2), thereafter fresh serum containing media was added and followed by further incubation (20 h for siLuc2 or 44 h for siGFP complexes). Luciferase gene downregulation was measured from cell lysates with Promega luciferase assay system (Promega, Sweden) in combination with GLOMAX 96 microplate luminometer equipped with GLOMAX 1.9.2 software (Promega). GFP was measured after treatment from cell lysates on black 96-well plates by measuring total fluorescence (Symergy MX, BioTek Instruments, USA equipped with Gen5 1.10 software). The results were normalized to the protein content of each sample (DC Protein Assay, BioRad, USA).
Luciferase activity was determined as described in previous paragraph.
For determination of pH dependency on the transfection efficiency, complexes were formed at MR30, incubated and diluted before addition to cells to obtain siRNA final concentration 10 nM in transfection media. HEPES buffer supplemented with 10% FBS was used as transfection media. Complexes were co-incubated with cells for 4 h and then media was replaced with cell growth media. After further 20 h incubation cells were lysed and analyzed as described previously.
The experiment was carried out in serum containing media (10% FBS). CPP/siRNA complexes were formed at different molar ratios with siRNA concentration kept constant (50 nM in transfection media). Luminescence from luciferin-luciferase reaction was measured at 24 hours post-treatment from cell lysate. Results were normalized to protein content and luminescence values from untreated cells (100%).

CHO cells = test: pDNA (p-CMV-Luc2) transfection with CPP/pDNA complexes; type: cell-based; conditions: serum containing medium, CR1 to CR4, 24 h
Description: For the pDNA transfection experiment, CPP/pDNA nanoparticles were prepared by mixing […] of plasmid (p-CMV-Luc2) with the peptide in MQ water. Charge ratios from 1 to 4 (CR, equivalent to the nitrogen-to-phosphate ratio) were used. 50,000 CHO cells were seeded 24 hr before the experiment into 24-well plates, treated with complexes for 4 h in serum-containing medium, incubated for additional 20 hr, lysed and luminescence was measured.

murine red blood cells = test: Membrane activity assay on murine red blood cells: hemolysis; type: cell-based, mouse; conditions: for HC50 Free peptide: pH 7.5; for pH dependent hemolytic activity (in words): buffer pH 5.5-7.5
Description: For evaluation of membrane activity of peptides, hemolysis assay was used. For this whole blood was collected from mouse (adult, BALB/c) saphenous vein into a heparinized collection tube. Blood was centrifuged (2300× g, 15 min) to separate cells (red blood cells-RBC) from the plasma. RBCs were washed according to following procedures.
RBCs were washed with 10 ml 0.9% NaCl saline and centrifuged (600× g, 15 min). Supernatant was discarded after each centrifugation. This was repeated at least 3 times. RBCs were re-suspended in 5 ml saline and distributed equally to tubes and centrifuged (600× g, 15 min). The cells were washed and re-suspended in 2× PBS with the required pH (pH 5.5-7.5). The hemoglobin content in stocks was measured after lysis of cells with equal volume of 0.1% Triton X100 supplemented with 5% glucose. The cell suspension was diluted accordingly for each pH value to obtain similar concentration range of hemoglobin in stocks. To each 100 ul of peptide solution 100 ul of 10% glucose was added, mixed, and equal volume (200 ul) of RBC in 2× PBS were added and gently mixed. Peptide solution with RBCs was incubated at 37° C. for 1 h with gentle mixing (max 300 rpm) after which samples were centrifuged to pellet intact cells from the solution. Hemoglobin from lysed cells was determined from each sample from the supernatant on transparent 96-well plates by measuring the absorbance at 540 nm.
Controls were incubated in similar manner as samples. As a non-hemolysis control mQ supplemented with glucose (0%) was used and for hemolytic control 0.1% TritonX-100 with glucose (100%) was used (cells are suspended in 2× PBS before addition). Final percent was calculated as follows: […]
For hemolytic concentration determination 2× PBS at pH 7.5 was used for incubation and 1× PBS at pH 7.5 was used for washing. Everything else is as described in previous paragraph.

[3] = Fluorescent dye (PicoGreen) intercalation and heparin displacement assay of CPP/siRNA complexes; type: physicochemical
Description: Complexation of siRNA and CPPs was assessed by Quant-iT™ PicoGreen® (PG) (Thermo Fisher Scientific, USA) assay in mQ water. Complexes were prepared as described previously, following addition of diluted PG. For detection, complexes (⅕ of volume), water (3/5) and PG (1/5) working dilution was incubated for 5 minutes and fluorescence was measured by fluorimeter (λex=492 nm, λem=535 nm) (SynergyMx, BioTek). For heparin displacement, instead of water, heparin salt solution at different concentrations were used and complexes incubated at 37° C. for 30 min before addition of PG dilution. Complex formation was also confirmed by gel electrophoresis (details in section 2.11).

[4] = test system: CHO stably expressing green fluorescent protein (GFP); test: GFP gene downregulation by CPP/siGFP complexes (lysate fluorescence, FACS, confocal); type: cell-based
Description: as §1, §2
For flow cytometry analysis (FACS) analysis CHO-GFP cells were seeded and treated as described previously. After incubation, cells were washed with 1× PBS and detached from plates with trypsin-EDTA (0.25%), and re-suspended in PBS supplemented with FBS (5%) and transferred to transparent U-bottom 96-well plates. FACS was carried out with BD LSR II flow cytometer (BD Biosciences, San Jose, CA, USA) equipped with a 488 nm argon laser. Population of viable cells was determined from scatter plot: forward scattered plot (FSC) vs. side scattered light (SSC) plot. A minimum of 10,000 events from the viable cell population per sample were analyzed using BD FACS Diva software. Results are shown as the population with GFP signal lower than that of 0.1% of untreated cells.
For confocal microscopy 2×10^5 cells per chamber were seeded on NUNC 8-chamber plates. After treatment with complexes (25 ul of pre-formed CPP/siRNA complexes added to cells in 225 ul serum containing media), incubated (48 h) and GFP florescence images of cells were captured using confocal microscope Zeiss LSM 710 and excitation at 488 nm (493-616 filter).

Compound	length or size of elongated particles, conglomerates or aggregates (TEM) [1]	luciferase downregulation efficiency (in words) [2]	Red (%) (reduction, based on remaining luminescence on U87 cells post-treatment) [2]	pDNA delivery / gene expression in vitro (in words) (CHO cells)	other results
HHHHYHHGO^eILLKALKALAKAIL [NF700, group H6; without fatty acid; C-terminally amidated]	exceed 500 nm	do not reveal any significant luciferase silencing activity	6		
HYHHGO^eILLKALKALAKAIL [NF727, group H3; C22 saturated fatty acid on N-terminus; C-terminally amidated]			43	promising vectors for pDNA transfection	
CCCCCCCCCCCCCCCCCC(=O)N[C@@H](C)C(=O)NCC(=O)N[C@@H](Cc1ccc(O)cc1)C(=O)N[C@@H](CC(C)C)C(=O)N[C@@H](CC(C)C)C(=O)NCC(=O)NCCC[C@H](N)C(=O)N[C@H](C(=O)N[C@@H](CC(N)=O)C(=O)N[C@@H](CC(C)C)C(=O)N[C@@H](CCCCN)C(=O)N[C@@H](C)C(=O)N[C@@H](CC(C)C)C(=O)N[C@@H](C)C(=O)N[C@@H](C)C(=O)N[C@@H](CC(C)C)C(=O)N[C@@H](C)C(=O)N[C@@H](CCCCN)C(=O)N[C@@H](C)C(=O)N[C@H](C(=O)N[C@@H](CC(C)C)C(N)=O)[C@@H](C)CC)[C@@H](C)CC [NF55, reference compound] (I: H-[Orn]INLKALAALAKAIL-NH2 / II: Stearoyl-AGYLLG; amide I:1-II:C)	up to 100 nm		75		HC50 CPP/siRNA complex (peptide concentration) (murine red blood cells; CPP/siRNA complexes at MR30): 3.2 µM; HC50 Free peptide (murine red blood cells; free peptide): 1.7 µM; increase of hemolytic activity at pH 5.5 (murine red blood cells; peptide 0.75 uM, buffer pH 5.5): 25%; pH dependent hemolytic activity (in words) (murine red blood cells; peptide 0.75 uM): least influenced by the pH decrease; siRNA accessible ([3]; 0.5 mg/ml heparin, complexes pre-formed at MR30): 10%; nanoparticle diameter / size (TEM) [1]: 10-50 nm
HHHHYHHGO^eILLKALKALAKAIL [NF702, group H6; C18 saturated fatty acid on N-terminus; C-terminally amidated]			70	almost yielded the same gene expression level as that of NF70 and NF55; also recorded: promising vectors for pDNA transfection	
HHHYHHGO^eILLKALKALAKAIL [NF716, group H5; C20 saturated fatty acid on N-terminus; C-terminally amidated]			65	promising vectors for pDNA transfection	
CCCCCCCCCCCCCCCCCCCC(=O)N[C@@H](Cc1c[nH]cn1)C(=O)N[C@@H](Cc1c[nH]cn1)C(=O)N[C@@H](Cc1c[nH]cn1)C(=O)N[C@@H](Cc1c[nH]cn1)C(=O)N[C@@H](Cc1c[nH]cn1)C(=O)N[C@@H](Cc1c[nH]cn1)C(=O)N[C@@H](Cc1ccc(O)cc1)C(=O)N[C@@H](Cc1c[nH]cn1)C(=O)N[C@@H](Cc1c[nH]cn1)C(=O)NCC(=O)NCCC[C@H](N)C(=O)N[C@H](C(=O)N[C@@H](CC(C)C)C(=O)N[C@@H](CC(C)C)C(=O)N[C@@H](CCCCN)C(=O)N[C@@H](C)C(=O)N[C@@H](CC(C)C)C(=O)N[C@@H](CCCCN)C(=O)N[C@@H](C)C(=O)N[C@@H](CC(C)C)C(=O)N[C@@H](C)C(=O)N[C@@H](CCCCN)C(=O)N[C@@H](C)C(=O)N[C@H](C(=O)N[C@@H](CC(C)C)C(N)=O)[C@@H](C)CC)[C@@H](C)CC [NF72] (I: H-[Orn]ILLKALKALAKAIL-NH2 / II: Arachidoyl-HHHHHHYHHG; amide I:1-II:C)		significantly less efficient than other compared CPPs	80		cells with downregulated reporter gene (GFP signal below threshold), FACS ([4]; CHO-GFP, CPP/siGFP complexes): 40%; GFP signal in confocal images ([4]; live cells treated with CPP/siGFP complexes): higher GFP signal when compared to complexes formed with peptides with less histidines in sequence; HC50 Free peptide (murine red blood cells; free peptide): >10 µM; hemolytic activity of free peptide (in words) (murine red blood cells; free peptide, up to 10 uM): less hemolytic than that of other peptides; pH dependent hemolytic activity (in words) (murine red blood cells; peptide 0.75 uM): almost no effect at physiologic pH, but lysed almost all cells at pH 5.5; accessibility of siRNA in complexes (dye intercalation) ([3]; MR30, no heparin): low accessibility of siRNA; remaining reporter activity ([2]; molar ratio 30 (MR30, peptide to siRNA), untreated cells 100%): 34%
HHHHYHHGO^eILLKALKALAKAIL [NF703, group H6; C22 saturated fatty acid on N-terminus; C-terminally amidated]	10-20 nm	RNA interference effect decreases again	73		
